# Measured values as given in article PMC8279409, “Novel Mixed NOP/Opioid Receptor Peptide Agonists” (Journal of Medicinal Chemistry, 2021).
# “And” between values parts separate entries of the source, which are not always exact repeats. Equal values may be shown once. Read-outs that look alike come from different tables or passages of the source. Where a SMILES comes first, the peptide text is derived from it. Where no end group is shown, it is not given here. [ ]: non-standard residue; d: D form. Phe(4-NO2) = N[C@@H](Cc1ccc([N+](=O)[O-])cc1)C(=O)O; Phe(4-NH2) = Nc1ccc(C[C@H](N)C(=O)O)cc1; 2Nal = N[C@@H](Cc1ccc2ccccc2c1)C(=O)O; Dmt = Cc1cc(O)cc(C)c1C[C@H](N)C(=O)O; Phg = N[C@H](C(=O)O)c1ccccc1; Nle = CCCC[C@H](N)C(=O)O; Nva = CCC[C@H](N)C(=O)O; Abu = CC[C@H](N)C(=O)O
# Experiments:
# human NOP receptor = target: T1, human NOP receptor (Homo sapiens, UniProt P41146); assay: Calcium mobilization, NOP receptor; assay type: cell-based; conditions: for Emax: mean ± SEM of at least three experiments in duplicate, SEM; for NOP pEC50 (CL95%): CHO cells coexpressing human NOP and Gαqi5, Fluo-4 AM, 37 °C, mean of at least three experiments in duplicate, CL95% in brackets; for NOP/mu CR (concentration ratio): calcium mobilization, NOP versus mu
# T1 construct: expressed in transfected cells; host or cells: CHO cells stably coexpressing the receptor and chimeric Gαqi5
# Method: CHO cells stably coexpressing the human NOP or kappa or the mu receptor and the C-terminally modified Gαqi5 and CHO cells coexpressing the delta receptor and the GαqG66Di5 protein were generated and cultured as described previously.[45],[46] Cells were maintained in Dulbecco’s modified Eagle’s medium/nutrient mixture F-12 (DEMEM/F-12) supplemented with 10% FBS, 100 U/mL penicillin and 100 μg/mL streptomycin, 100 μg/mL hygromicin B, and 200 μg/mL G418 and cultured at 37 °C in 5% CO2 humidified air. Cells were seeded at a density of 50,000 cells/well into 96-well black, clear-bottom plates. The following day, the cells were incubated with Hanks’ balanced salt solution (HBSS) supplemented with 2.5 mM probenecid, 3 μM of the calcium-sensitive fluorescent dye Fluo-4 AM, and 0.01% pluronic acid for 30 min at 37 °C. After that time, the loading solution was aspirated and 100 μL/well of HBSS supplemented with 20 mM HEPES, 2.5 mM probenecid, and 500 μM brilliant black was added. Serial dilutions were carried out in HBSS/HEPES (20 mM) buffer (containing 0.02% BSA fraction V). After placing both plates (cell culture and master plate) into the fluorometric imaging plate reader FlexStation II (Molecular Devices, Sunnyvale, CA), fluorescence changes were measured. On-line additions were carried out in a volume of 50 μL/well. To facilitate drug diffusion into the wells, the present studies were performed at 37 °C. Maximum change in fluorescence, expressed as percent over the baseline fluorescence, was used to determine agonist response.
# The pharmacological terminology adopted in this paper is consistent with IUPHAR recommendations.[59] All data are expressed as the mean ± standard error of the mean (SEM) of at least three experiments performed in duplicate. […] Concentration-response curves to agonists were fitted to the classical four-parameter logistic nonlinear regression model:
# Effect = Baseline + (Emax – Baseline)/(1 + 10^(LogEC50 – Log[compound]) × Hillslope). Curve fitting was performed using PRISM 6.0 (GraphPad Software Inc., San Diego).
# human mu receptor = target: T2, human mu receptor (Homo sapiens, UniProt P35372); assay: Calcium mobilization, mu opioid receptor; assay type: cell-based; conditions: for Emax / activation at 10 µM: percent over the baseline fluorescence, SEM; for Emax: mean ± SEM of at least three experiments in duplicate; for mu pEC50 (CL95%): CHO cells coexpressing human mu receptor and Gαqi5, Fluo-4 AM, 37 °C, mean of at least three experiments in duplicate, CL95% in brackets; for pEC50_mu: molecular formula strings CSV, repeats calcium mobilization values of Tables 1-3; for activation at 10 µM: mean ± SEM
# T2 construct: expressed in transfected cells; host or cells: CHO cells stably coexpressing the receptor and chimeric Gαqi5
# [1] = read-out: NOP Emax ± S.E.M., Table 2 series, percent over the baseline fluorescence
# [2] = read-out: mu Emax ± S.E.M., Table 2 series
# [3] = read-out: mu effect at 10 μM (crc incomplete), Table 2 series
# [4] = read-out: NOP Emax ± S.E.M., Table 1 series, maximum change in fluorescence as percent over the baseline fluorescence
# [5] = read-out: mu Emax ± S.E.M, Table 1 series
# [6] = read-out: mu effect at 10 μM (crc incomplete), Table 1 series
# [7] = read-out: NOP Emax ± S.E.M., Table 3 series, percent over the baseline fluorescence
# [8] = read-out: mu Emax ± S.E.M., Table 3 series
# T1 sequence (P41146 whole entry): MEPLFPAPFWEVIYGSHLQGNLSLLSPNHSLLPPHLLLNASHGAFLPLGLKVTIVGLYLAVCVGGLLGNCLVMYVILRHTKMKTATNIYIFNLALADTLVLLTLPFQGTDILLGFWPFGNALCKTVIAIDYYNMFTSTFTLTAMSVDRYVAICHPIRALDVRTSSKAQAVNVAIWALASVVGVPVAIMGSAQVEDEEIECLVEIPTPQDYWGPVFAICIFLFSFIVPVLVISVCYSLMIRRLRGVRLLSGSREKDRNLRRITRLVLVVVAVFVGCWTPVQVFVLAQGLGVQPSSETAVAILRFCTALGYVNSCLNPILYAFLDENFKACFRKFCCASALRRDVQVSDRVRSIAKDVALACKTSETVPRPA
# T2 sequence (P35372 whole entry): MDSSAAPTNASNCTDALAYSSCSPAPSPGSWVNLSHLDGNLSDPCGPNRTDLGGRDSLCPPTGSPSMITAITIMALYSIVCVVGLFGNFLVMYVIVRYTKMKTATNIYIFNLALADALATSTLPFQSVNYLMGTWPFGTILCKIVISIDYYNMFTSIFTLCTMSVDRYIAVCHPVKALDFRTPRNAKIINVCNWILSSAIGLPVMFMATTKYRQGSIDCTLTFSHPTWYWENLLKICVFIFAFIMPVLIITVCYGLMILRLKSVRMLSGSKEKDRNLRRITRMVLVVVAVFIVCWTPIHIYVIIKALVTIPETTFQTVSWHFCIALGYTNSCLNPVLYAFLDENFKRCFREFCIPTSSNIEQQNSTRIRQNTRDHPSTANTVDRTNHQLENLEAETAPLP
molecule,measurement,setting,value
"Cc1cc(O)cc(C)c1C[C@H](NC(=O)[C@H](Cc1ccccc1)NC(=O)CNC(=O)CNC(=O)[C@@H](N)Cc1ccc(O)cc1)C(=O)NCC(=O)N[C@@H](C)C(=O)N[C@@H](CCCNC(=N)N)C(=O)N[C@@H](CCCCN)C(=O)N[C@@H](CO)C(=O)N[C@@H](C)C(=O)N[C@@H](CCCNC(=N)N)C(=O)N[C@@H](CCCCN)C(N)=O [Compound 28, [Tyr^1,Dmt^5]N/OFQ(1-13)-NH2] (H-YGGF[Dmt]GARKSARK-NH2)",Emax,human NOP receptor; [1],251 ± 22%
same,Emax,human mu receptor; [2],301 ± 35%
"C[C@H](NC(=O)CNC(=O)[C@H](Cc1ccc([N+](=O)[O-])cc1)NC(=O)[C@H](Cc1ccccc1)NC(=O)CNC(=O)CNC(=O)[C@@H](N)Cc1ccc(O)cc1)C(=O)N[C@@H](CCCNC(=N)N)C(=O)N[C@@H](CCCCN)C(=O)N[C@@H](CO)C(=O)N[C@@H](C)C(=O)N[C@@H](CCCNC(=N)N)C(=O)N[C@@H](CCCCN)C(N)=O [Compound 22, [Tyr^1,(pNO2)Phe^5]N/OFQ(1-13)-NH2] (H-YGGF[Phe(4-NO2)]GARKSARK-NH2)",Emax,human NOP receptor; [1],305 ± 22%
same,mu pEC50 (CL95%),human mu receptor; Table 2 series,crc incomplete; 10 μM: 192 ± 64
same,pEC50_mu,human mu receptor,crc incomplete
same,activation at 10 µM,human mu receptor; [3],192 ± 64%
"YGGFTGARKSARK-NH2 [Compound 3, [Tyr^1]N/OFQ(1-13)-NH2, reference compound]",EC50,human NOP receptor,0.741 nM and 0.708 nM
same,EC50,human mu receptor,1580 nM
"CCCC[C@H](NC(=O)[C@H](Cc1ccccc1)NC(=O)CNC(=O)CNC(=O)[C@@H](N)Cc1ccc(O)cc1)C(=O)NCC(=O)N[C@@H](C)C(=O)N[C@@H](CCCNC(=N)N)C(=O)N[C@@H](CCCCN)C(=O)N[C@@H](CO)C(=O)N[C@@H](C)C(=O)N[C@@H](CCCNC(=N)N)C(=O)N[C@@H](CCCCN)C(N)=O [Compound 12, [Tyr^1,Nle^5]N/OFQ(1-13)-NH2] (H-YGGF[Nle]GARKSARK-NH2)",NOP pEC50 (CL95%),"human NOP receptor; Table 1 series, FlexStation II",8.77 (8.45–9.09)
same,NOP/mu CR (concentration ratio),human NOP receptor; Table 1 series,0.01
same,Emax,human NOP receptor; [4],375 ± 9%
same,mu pEC50 (CL95%),human mu receptor; Table 1 series,6.74 (6.15–7.33)
same,Emax,human mu receptor; [5],323 ± 4%
"CC[C@H](NC(=O)[C@H](Cc1ccccc1)NC(=O)CNC(=O)CNC(=O)[C@@H](N)Cc1ccc(O)cc1)C(=O)NCC(=O)N[C@@H](C)C(=O)N[C@@H](CCCNC(=N)N)C(=O)N[C@@H](CCCCN)C(=O)N[C@@H](CO)C(=O)N[C@@H](C)C(=O)N[C@@H](CCCNC(=N)N)C(=O)N[C@@H](CCCCN)C(N)=O [Compound 7, [Tyr^1,Abu^5]N/OFQ(1-13)-NH2] (H-YGGF[Abu]GARKSARK-NH2)",NOP pEC50 (CL95%),"human NOP receptor; Table 1 series, FlexStation II",8.15 (7.61–8.69)
same,NOP/mu CR (concentration ratio),human NOP receptor; Table 1 series,0.007
same,Emax,human NOP receptor; [4],366 ± 20%
same,mu pEC50 (CL95%),human mu receptor; Table 1 series,crc incomplete; 10 μM: 213 ± 37
same,pEC50_mu,human mu receptor,crc incomplete
same,activation at 10 µM,human mu receptor; [6],213 ± 37%
"CCC[C@H](NC(=O)[C@H](Cc1ccccc1)NC(=O)CNC(=O)CNC(=O)[C@@H](N)Cc1ccc(O)cc1)C(=O)NCC(=O)N[C@@H](C)C(=O)N[C@@H](CCCNC(=N)N)C(=O)N[C@@H](CCCCN)C(=O)N[C@@H](CO)C(=O)N[C@@H](C)C(=O)N[C@@H](CCCNC(=N)N)C(=O)N[C@@H](CCCCN)C(N)=O [Compound 13, [Tyr^1,Nva^5]N/OFQ(1-13)-NH2] (H-YGGF[Nva]GARKSARK-NH2)",NOP pEC50 (CL95%),"human NOP receptor; Table 1 series, FlexStation II",8.43 (7.55–9.31)
same,NOP/mu CR (concentration ratio),human NOP receptor; Table 1 series,0.007
same,Emax,human NOP receptor; [4],358 ± 14%
same,mu pEC50 (CL95%),human mu receptor; Table 1 series,6.25 (5.59–6.91)
same,Emax,human mu receptor; [5],313 ± 19%
"YGGFHGARKSARK-NH2 [Compound 16, [Tyr^1,His^5]N/OFQ(1-13)-NH2]",NOP pEC50 (CL95%),human NOP receptor; Table 2 series,7.39 (7.16–7.62)
same,NOP/mu CR (concentration ratio),human NOP receptor; Table 2 series,0.05
same,Emax,human NOP receptor; [1],249 ± 23%
same,mu pEC50 (CL95%),human mu receptor; Table 2 series,crc incomplete; 10 μM: 230 ± 37
same,pEC50_mu,human mu receptor,crc incomplete
same,activation at 10 µM,human mu receptor; [3],230 ± 37%
"Cc1cc(O)cc(C)c1C[C@H](NC(=O)[C@H](Cc1ccccc1)NC(=O)CNC(=O)CNC(=O)[C@@H](N)Cc1c(C)cc(O)cc1C)C(=O)NCC(=O)N[C@@H](C)C(=O)N[C@@H](CCCNC(=N)N)C(=O)N[C@@H](CCCCN)C(=O)N[C@@H](CO)C(=O)N[C@@H](C)C(=O)N[C@@H](CCCNC(=N)N)C(=O)N[C@@H](CCCCN)C(N)=O [Compound 35, [Dmt^1,5]N/OFQ(1-13)-NH2] (H-[Dmt]GGF[Dmt]GARKSARK-NH2)",Emax,human NOP receptor; [7],270 ± 25%
same,Emax,human mu receptor; [8],354 ± 16%
"YGGFYGARKSARK-NH2 [Compound 14, [Tyr^1,5]N/OFQ(1-13)-NH2]",NOP pEC50 (CL95%),"human NOP receptor; Table 1 series, FlexStation II",7.07 (6.68–7.46)
same,NOP/mu CR (concentration ratio),human NOP receptor; Table 1 series,0.49
same,Emax,human NOP receptor; [4],332 ± 19%
same,mu pEC50 (CL95%),human mu receptor; Table 1 series,6.76 (6.34–7.18)
same,Emax,human mu receptor; [5],357 ± 21%
"C[C@H](NC(=O)CNC(=O)[C@H](Cc1ccc2ccccc2c1)NC(=O)[C@H](Cc1ccccc1)NC(=O)CNC(=O)CNC(=O)[C@@H](N)Cc1ccc(O)cc1)C(=O)N[C@@H](CCCNC(=N)N)C(=O)N[C@@H](CCCCN)C(=O)N[C@@H](CO)C(=O)N[C@@H](C)C(=O)N[C@@H](CCCNC(=N)N)C(=O)N[C@@H](CCCCN)C(N)=O [Compound 26, [Tyr^1,2Nal^5]N/OFQ(1-13)-NH2] (H-YGGF[2Nal]GARKSARK-NH2)",NOP pEC50 (CL95%),human NOP receptor; Table 2 series,6.82 (6.60–7.04)
same,NOP/mu CR (concentration ratio),human NOP receptor; Table 2 series,0.19
same,Emax,human NOP receptor; [1],266 ± 15%
same,mu pEC50 (CL95%),human mu receptor; Table 2 series,crc incomplete; 10 μM: 244 ± 10
same,pEC50_mu,human mu receptor,crc incomplete
same,activation at 10 µM,human mu receptor; [3],244 ± 10%
"C[C@H](NC(=O)CNC(=O)[C@H](Cc1ccc(N)cc1)NC(=O)[C@H](Cc1ccccc1)NC(=O)CNC(=O)CNC(=O)[C@@H](N)Cc1ccc(O)cc1)C(=O)N[C@@H](CCCNC(=N)N)C(=O)N[C@@H](CCCCN)C(=O)N[C@@H](CO)C(=O)N[C@@H](C)C(=O)N[C@@H](CCCNC(=N)N)C(=O)N[C@@H](CCCCN)C(N)=O [Compound 27, [Tyr^1,(pNH2)Phe^5]N/OFQ(1-13)-NH2] (H-YGGF[Phe(4-NH2)]GARKSARK-NH2)",Emax,human NOP receptor; [1],274 ± 15%
same,Emax,human mu receptor; [2],329 ± 37%
"YGGFNGARKSARK-NH2 [Compound 4, [Tyr^1,Asn^5]N/OFQ(1-13)-NH2]",NOP pEC50 (CL95%),"human NOP receptor; Table 1 series, FlexStation II",8.70 (8.26–9.11)
same,NOP/mu CR (concentration ratio),human NOP receptor; Table 1 series,0.002
same,Emax,human NOP receptor; [4],327 ± 15%
same,mu pEC50 (CL95%),human mu receptor; Table 1 series,crc incomplete; 10 μM: 209 ± 29
same,pEC50_mu,human mu receptor,crc incomplete
same,activation at 10 µM,human mu receptor; [6],209 ± 29%
"Cc1cc(O)cc(C)c1C[C@H](N)C(=O)NCC(=O)NCC(=O)N[C@@H](Cc1ccccc1)C(=O)N[C@H](C(=O)NCC(=O)N[C@@H](C)C(=O)N[C@@H](CCCNC(=N)N)C(=O)N[C@@H](CCCCN)C(=O)N[C@@H](CO)C(=O)N[C@@H](C)C(=O)N[C@@H](CCCNC(=N)N)C(=O)N[C@@H](CCCCN)C(N)=O)c1ccccc1 [Compound 32, [Dmt^1,Phg^5]N/OFQ(1-13)-NH2] (H-[Dmt]GGF[Phg]GARKSARK-NH2)",Emax,human NOP receptor; [7],282 ± 12%
same,Emax,human mu receptor; [8],339 ± 28%
